Test results: ChEMBL document CHEMBL1201862, “PubChem BioAssay data set” (2004)
Activity calls are given as the source filed them.

Tests used:
Protein skinhead-1 = biological target: T1, Protein skinhead-1 (Caenorhabditis elegans, UniProt P34707); assay type: functional
T1 sequence (P34707 whole entry): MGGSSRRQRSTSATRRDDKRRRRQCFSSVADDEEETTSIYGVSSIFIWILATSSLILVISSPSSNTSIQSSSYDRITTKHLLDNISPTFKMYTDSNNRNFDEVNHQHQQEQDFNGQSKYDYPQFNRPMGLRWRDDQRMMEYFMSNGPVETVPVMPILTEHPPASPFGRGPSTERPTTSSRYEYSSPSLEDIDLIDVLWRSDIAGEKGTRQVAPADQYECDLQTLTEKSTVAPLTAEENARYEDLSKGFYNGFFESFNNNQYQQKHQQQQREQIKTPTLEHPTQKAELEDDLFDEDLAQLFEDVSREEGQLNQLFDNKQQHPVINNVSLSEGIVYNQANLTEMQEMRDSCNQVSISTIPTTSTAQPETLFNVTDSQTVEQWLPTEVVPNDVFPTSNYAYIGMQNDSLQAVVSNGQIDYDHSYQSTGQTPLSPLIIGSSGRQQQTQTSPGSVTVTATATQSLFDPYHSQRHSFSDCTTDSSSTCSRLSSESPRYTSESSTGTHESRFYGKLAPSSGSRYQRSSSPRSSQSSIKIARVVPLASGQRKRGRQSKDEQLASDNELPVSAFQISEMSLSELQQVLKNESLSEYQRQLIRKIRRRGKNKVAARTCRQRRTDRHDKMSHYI

Genome polyprotein = Genome polyprotein (dengue virus type 2, UniProt P29990); assay: Dengue-2 NS5 methyltransferase inhibitors, primary screen, biochemical, confirmation dose response (AID 588689); assay type: functional
[1] = biological target: Hepatocyte nuclear factor 4-alpha (Homo sapiens, UniProt P41235); assay type: functional, cell-based;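 also: biochemical luminescence-based dose-response counterscreen measuring inhibition of HNF4 dimerization, run alongside a screen for blockers of ABHD5–perilipin-5 interaction; split luciferase complementation of HNF4 fusion proteins in cell lysate measuring dimerization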
Sequence of Hepatocyte nuclear factor 4-alpha (P41235 whole entry, the tested form may be a part): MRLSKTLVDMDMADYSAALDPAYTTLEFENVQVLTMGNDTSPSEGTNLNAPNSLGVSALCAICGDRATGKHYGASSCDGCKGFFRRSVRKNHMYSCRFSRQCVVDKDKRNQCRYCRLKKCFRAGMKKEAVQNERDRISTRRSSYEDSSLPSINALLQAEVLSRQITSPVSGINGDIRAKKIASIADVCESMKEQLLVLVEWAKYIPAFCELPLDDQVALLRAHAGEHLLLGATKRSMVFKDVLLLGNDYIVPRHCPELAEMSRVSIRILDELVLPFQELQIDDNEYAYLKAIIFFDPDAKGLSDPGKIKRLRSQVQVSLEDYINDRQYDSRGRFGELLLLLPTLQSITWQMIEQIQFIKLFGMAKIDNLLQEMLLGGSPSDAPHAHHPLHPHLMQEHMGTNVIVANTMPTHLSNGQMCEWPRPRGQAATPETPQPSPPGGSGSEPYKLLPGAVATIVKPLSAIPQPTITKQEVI

[2] = biological target: T2, RNA-binding protein pos-1 (Caenorhabditis elegans, UniProt G5EF15); assay: inhibitors of POS-1/mex-3 RNA binding, dose response, biochemical, fluorescence polarization (AID 1964);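 also: purified POS-1 fused to maltose binding protein made in E. coli; potency of compounds blocking POS-1 binding to fluorescent RNA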
T2 sequence (G5EF15 whole entry): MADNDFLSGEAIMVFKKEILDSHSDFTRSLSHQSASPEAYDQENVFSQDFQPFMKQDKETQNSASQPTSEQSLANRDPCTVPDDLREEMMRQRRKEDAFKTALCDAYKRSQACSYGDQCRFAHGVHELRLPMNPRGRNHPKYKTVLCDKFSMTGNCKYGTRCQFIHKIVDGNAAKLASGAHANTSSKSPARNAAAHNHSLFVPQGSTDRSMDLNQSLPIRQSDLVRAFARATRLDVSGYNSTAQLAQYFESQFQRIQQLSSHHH

[3] = biological target: T3, Zinc finger protein mex-5 (Caenorhabditis elegans, UniProt Q9XUB2); assay: MEX-5/TCR-2 RNA interaction inhibitors, dose response, biochemical, C. elegans, fluorescence polarization (AID 1960)
T3 sequence (Q9XUB2 whole entry): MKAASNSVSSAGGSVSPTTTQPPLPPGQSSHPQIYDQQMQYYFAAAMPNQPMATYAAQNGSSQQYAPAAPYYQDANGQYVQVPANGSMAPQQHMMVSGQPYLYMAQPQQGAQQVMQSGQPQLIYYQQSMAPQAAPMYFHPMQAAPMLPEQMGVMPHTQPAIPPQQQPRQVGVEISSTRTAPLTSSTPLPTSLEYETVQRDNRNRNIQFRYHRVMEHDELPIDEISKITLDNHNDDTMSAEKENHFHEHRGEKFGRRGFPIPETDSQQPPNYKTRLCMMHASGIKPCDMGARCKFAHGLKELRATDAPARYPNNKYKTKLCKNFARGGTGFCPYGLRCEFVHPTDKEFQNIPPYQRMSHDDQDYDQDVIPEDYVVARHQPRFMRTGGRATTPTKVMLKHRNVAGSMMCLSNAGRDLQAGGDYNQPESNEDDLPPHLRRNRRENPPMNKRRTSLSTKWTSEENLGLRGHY

Beta Lactamase = Beta Lactamase (Pseudomonas aeruginosa, UniProt Q932Y6); assay: beta-lactamase reporter inhibitor potency, dose response, artefact control for NOD2-RIPK2 interaction inhibitor project, BLA reporter cells, FRET fluorescence (AID 651552); assay type: functional, cell-based
Fatty acid synthase [4] = biological target: T4, Fatty acid synthase (Homo sapiens, UniProt P49327); assay: FAS thioesterase domain inhibitors, dose response, biochemical, kinetic fluorescence intensity (AID 624326); assay type: functional;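 also: rate of fluorescence rise from hydrolysis of a fluorogenic O-methyl fluorescein ester substrate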
T4 sequence (P49327 whole entry, the tested form may be a part): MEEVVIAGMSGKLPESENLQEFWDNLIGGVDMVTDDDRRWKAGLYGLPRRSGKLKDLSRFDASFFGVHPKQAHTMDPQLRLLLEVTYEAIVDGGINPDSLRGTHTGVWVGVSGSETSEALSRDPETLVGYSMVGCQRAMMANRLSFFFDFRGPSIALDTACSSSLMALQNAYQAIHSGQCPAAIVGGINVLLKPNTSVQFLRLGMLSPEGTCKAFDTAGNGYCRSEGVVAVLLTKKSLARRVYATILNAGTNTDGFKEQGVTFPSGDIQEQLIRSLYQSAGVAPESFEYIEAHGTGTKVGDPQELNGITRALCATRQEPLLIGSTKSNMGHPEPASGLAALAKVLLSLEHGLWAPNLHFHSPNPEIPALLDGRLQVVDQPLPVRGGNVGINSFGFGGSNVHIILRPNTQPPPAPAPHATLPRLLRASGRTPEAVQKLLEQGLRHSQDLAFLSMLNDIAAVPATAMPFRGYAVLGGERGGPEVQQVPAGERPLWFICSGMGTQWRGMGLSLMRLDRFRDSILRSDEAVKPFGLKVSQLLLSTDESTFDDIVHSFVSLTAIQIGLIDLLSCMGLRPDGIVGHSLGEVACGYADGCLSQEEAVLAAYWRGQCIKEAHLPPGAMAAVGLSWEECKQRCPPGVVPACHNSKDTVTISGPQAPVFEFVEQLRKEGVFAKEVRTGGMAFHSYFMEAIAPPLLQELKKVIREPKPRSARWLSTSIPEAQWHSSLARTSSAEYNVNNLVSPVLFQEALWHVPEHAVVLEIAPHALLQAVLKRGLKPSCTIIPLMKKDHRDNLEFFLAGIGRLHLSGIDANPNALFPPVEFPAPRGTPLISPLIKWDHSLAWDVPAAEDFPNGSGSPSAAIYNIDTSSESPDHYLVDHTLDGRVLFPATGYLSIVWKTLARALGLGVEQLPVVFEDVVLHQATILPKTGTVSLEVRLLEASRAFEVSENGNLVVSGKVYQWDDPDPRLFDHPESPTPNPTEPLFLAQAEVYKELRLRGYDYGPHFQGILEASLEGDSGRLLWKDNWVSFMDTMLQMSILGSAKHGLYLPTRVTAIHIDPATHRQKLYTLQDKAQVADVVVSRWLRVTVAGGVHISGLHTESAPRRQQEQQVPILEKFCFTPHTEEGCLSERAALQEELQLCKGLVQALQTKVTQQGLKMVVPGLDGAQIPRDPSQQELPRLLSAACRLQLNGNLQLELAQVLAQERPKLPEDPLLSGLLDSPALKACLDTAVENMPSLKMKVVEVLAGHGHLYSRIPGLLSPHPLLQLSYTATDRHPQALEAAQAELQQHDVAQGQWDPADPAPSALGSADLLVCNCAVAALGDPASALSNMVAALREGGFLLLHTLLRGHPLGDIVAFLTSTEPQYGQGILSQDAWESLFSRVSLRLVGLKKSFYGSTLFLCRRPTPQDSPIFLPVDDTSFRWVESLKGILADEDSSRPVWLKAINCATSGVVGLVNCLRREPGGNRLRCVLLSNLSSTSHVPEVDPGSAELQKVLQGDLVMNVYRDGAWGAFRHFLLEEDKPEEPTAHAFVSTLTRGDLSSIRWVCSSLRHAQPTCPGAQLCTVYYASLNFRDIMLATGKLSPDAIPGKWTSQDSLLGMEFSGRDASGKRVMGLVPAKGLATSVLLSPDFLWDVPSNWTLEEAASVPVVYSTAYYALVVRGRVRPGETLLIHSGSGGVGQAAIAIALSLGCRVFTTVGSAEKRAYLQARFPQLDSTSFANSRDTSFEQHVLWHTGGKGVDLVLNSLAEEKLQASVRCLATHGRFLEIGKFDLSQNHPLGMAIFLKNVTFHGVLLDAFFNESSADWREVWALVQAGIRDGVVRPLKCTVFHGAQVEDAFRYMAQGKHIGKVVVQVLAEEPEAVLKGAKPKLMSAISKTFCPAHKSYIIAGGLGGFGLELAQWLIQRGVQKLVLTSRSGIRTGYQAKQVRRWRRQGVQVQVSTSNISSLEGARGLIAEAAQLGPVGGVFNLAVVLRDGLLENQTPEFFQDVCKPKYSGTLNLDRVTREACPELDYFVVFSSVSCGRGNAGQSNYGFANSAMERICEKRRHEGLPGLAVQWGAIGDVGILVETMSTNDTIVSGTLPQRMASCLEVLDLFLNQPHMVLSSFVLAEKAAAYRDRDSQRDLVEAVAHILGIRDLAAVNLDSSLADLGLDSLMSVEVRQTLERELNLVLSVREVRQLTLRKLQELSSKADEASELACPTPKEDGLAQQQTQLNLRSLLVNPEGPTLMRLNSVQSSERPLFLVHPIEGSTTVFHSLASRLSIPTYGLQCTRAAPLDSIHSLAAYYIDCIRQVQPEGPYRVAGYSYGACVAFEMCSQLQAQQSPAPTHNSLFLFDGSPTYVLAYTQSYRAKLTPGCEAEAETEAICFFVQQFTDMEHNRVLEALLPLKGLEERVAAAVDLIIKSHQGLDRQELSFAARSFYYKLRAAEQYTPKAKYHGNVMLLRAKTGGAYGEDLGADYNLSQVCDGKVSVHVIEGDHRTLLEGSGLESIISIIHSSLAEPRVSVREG

Fatty acid synthase [5] = biological target: T4, Fatty acid synthase; assay: FAS thioesterase domain inhibitors, dose response, biochemical, endpoint fluorescence intensity, uHTS hits (AID 624327); assay type: functional;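 also: fluorescence from hydrolysis of an O-methyl fluorescein acyl ester substrate by the enzyme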
[6] = Fluorescence-based cell-based high throughput dose response assay for inhibitors of the interaction of nucleotide-binding oligomerization domain containing 2 (NOD2) and the receptor-interacting serine-threonine kinase 2 (RIPK2).; assay type: functional; settings: Homo sapiens
[7] = CRF-BP/CRF-R2 complex antagonists, dose response, cell-based, uHTS hits, 384-well (AID 651639); assay type: functional, Homo sapiens; settings: read-out: IC50_Mean
[8] = biological target: T5, Corticotropin-releasing factor receptor 2/Corticotropin-releasing factor-binding protein (Homo sapiens, UniProt P24387+Q13324); assay: Dose Response confirmation of uHTS hits for small molecule antagonists of the CRF-binding protein and CRF-R2 receptor complex.; assay type: functional; settings: read-out: IC50_Mean
T5 sequence (Q13324 whole entry): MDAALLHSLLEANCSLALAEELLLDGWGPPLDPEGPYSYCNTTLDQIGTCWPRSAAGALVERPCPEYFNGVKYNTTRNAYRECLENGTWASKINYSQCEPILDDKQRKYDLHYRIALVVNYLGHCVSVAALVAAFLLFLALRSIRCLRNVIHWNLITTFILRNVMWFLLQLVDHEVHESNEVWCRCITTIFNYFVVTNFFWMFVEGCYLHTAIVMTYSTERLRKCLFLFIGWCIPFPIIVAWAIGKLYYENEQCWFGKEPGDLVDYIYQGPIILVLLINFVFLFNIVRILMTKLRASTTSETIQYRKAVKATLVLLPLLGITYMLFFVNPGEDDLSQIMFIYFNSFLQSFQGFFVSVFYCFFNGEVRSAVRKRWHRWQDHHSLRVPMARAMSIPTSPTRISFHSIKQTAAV
T5 sequence (P24387 whole entry): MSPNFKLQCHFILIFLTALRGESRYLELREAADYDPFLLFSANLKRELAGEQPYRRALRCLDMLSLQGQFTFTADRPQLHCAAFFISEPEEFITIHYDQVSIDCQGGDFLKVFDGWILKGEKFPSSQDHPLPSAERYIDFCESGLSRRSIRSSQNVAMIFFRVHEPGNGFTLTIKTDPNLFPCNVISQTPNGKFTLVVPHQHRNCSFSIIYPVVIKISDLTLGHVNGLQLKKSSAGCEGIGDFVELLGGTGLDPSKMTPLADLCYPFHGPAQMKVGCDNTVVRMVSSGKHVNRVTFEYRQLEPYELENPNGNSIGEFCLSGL

[9] = biological target: T5, Corticotropin-releasing factor receptor 2/Corticotropin-releasing factor-binding protein; assay: activators of CRF receptor 2 with binding protein – uHTS hits, confirmation (AID 602473); assay type: functional; settings: read-out: EC50_Mean
Vero = assay: Vero cell toxicity, dose response, cytotoxicity control, plate reader, cherry-pick samples (AID 687020); assay type: functional, cell-based; settings: Chlorocebus sabaeus
HEK293 = assay: inhibitors of LMP1-driven NF-kB reporter, dose response, cell-based, HEK293, luciferase, cherry-pick (AID 588343); assay type: functional; settings: Homo sapiens
[10] = HEK293T cell cytotoxicity, dose response, cytotoxicity control for HIV Vif inhibitor project, cherry-picks (AID 652208); assay type: functional, cell-based
[11] = Luminescence Cell-Based Dose Response HTS to Identify Inhibitors of 5'UTR Stem-Loop Driven Prion Protein mRNA Translation in H4 Neuroglioblastoma Cells. [Related pubchem assays: 1827 (Project Summary), 1813 (Primary HTS)]; assay type: functional
[12] = inhibitors of SNCA 5'UTR-driven reporter translation, confirmation, H4 neuroglioma cells, luminescence (AID 1988); assay type: functional, cell-based
[13] = inhibitors of firefly luciferase expression or activity, dose response, H4 neuroglioma cells, luminescence (AID 1990); assay type: functional, cell-based
[14] = biological target: T6, Type-1 angiotensin II receptor (Homo sapiens, UniProt P30556); assay: AT1 receptor antagonists, dose response, selectivity assay for APJ receptor antagonist project, cell-based, uHTS hits (AID 463214); assay type: functional;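 also: antagonist potency against angiotensin II stimulated AT1 response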
T6 sequence (P30556 whole entry): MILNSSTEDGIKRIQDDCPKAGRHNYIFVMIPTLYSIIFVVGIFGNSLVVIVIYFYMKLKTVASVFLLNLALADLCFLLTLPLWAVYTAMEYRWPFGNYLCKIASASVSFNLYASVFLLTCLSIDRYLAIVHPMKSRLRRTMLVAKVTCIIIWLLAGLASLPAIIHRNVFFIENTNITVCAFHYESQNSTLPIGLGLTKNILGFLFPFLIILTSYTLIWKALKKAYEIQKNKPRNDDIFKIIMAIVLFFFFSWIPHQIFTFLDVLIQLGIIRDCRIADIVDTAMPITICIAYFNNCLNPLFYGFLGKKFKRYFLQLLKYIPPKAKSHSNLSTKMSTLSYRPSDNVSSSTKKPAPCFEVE

Beta-galactosidase = Beta-galactosidase (Escherichia coli, UniProt Q8VNN2); assay: PubChem AID 485352; assay type: functional
Galanin receptor type 3 = Galanin receptor type 3 (Homo sapiens, UniProt O60755); assay: Fluorescence-based cell-based primary high throughput dose response assay to identify antagonists of the Galanin Receptor 3 (GalR3).; assay type: functional
Sequence of Galanin receptor type 3 (O60755 whole entry, the tested form may be a part): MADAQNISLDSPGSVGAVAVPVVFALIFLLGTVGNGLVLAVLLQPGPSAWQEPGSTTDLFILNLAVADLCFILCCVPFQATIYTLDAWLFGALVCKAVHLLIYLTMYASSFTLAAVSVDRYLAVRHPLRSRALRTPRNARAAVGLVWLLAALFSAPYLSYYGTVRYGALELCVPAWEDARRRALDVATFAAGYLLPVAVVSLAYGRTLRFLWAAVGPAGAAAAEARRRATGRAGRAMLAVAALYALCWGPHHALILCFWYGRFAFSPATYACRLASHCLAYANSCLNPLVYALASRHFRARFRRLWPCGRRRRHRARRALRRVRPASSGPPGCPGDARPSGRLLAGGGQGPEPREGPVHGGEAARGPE

[15] = biological target: Arf-GAP with SH3 domain, ANK repeat and PH domain-containing protein 1 (Homo sapiens, UniProt Q9ULH1); assay type: functional;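 also: biochemical fluorescence polarization dose–response screen measuring inhibition of ASAP1; ASAP1 GAP domain stimulating GTP hydrolysis by truncated human ARF1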
Sequence of Arf-GAP with SH3 domain, ANK repeat and PH domain-containing protein 1 (Q9ULH1 whole entry, the tested form may be a part): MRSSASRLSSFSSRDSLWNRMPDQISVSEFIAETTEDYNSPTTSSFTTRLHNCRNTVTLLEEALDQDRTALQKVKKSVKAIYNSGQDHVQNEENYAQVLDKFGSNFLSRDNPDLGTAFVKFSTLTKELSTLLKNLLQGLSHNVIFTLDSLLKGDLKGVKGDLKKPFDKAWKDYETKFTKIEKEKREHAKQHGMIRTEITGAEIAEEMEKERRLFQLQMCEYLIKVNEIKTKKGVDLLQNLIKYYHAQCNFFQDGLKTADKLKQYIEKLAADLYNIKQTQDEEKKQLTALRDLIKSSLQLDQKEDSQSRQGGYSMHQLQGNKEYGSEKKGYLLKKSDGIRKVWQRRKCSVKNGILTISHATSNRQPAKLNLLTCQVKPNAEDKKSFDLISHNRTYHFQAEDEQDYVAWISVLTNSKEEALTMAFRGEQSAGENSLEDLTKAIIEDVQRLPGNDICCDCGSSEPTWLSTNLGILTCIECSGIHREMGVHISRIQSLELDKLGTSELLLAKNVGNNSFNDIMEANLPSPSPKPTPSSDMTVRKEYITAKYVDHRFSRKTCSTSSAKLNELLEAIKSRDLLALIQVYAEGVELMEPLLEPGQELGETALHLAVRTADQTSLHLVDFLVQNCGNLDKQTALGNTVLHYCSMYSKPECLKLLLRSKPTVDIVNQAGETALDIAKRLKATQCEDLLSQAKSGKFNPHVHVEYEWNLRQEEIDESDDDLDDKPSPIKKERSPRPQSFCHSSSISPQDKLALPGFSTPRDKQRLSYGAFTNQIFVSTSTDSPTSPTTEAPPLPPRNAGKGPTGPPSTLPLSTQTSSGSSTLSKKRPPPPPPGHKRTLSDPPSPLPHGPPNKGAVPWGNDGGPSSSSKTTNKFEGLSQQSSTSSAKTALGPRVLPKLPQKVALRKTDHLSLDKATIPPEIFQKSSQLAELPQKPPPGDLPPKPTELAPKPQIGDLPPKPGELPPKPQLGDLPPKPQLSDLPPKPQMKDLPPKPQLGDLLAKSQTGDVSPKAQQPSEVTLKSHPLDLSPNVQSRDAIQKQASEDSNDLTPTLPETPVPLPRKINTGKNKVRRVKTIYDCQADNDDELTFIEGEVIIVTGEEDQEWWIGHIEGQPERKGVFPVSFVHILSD

[16] = DNA binding of candidate compounds, dose response, artefact control for RAD54 inhibitor project, biochemical, fluorescence polarization, cherry-pick (AID 651673); assay type: functional
[17] = biological target: T7, DNA repair and recombination protein RAD54-like (Homo sapiens, UniProt Q92698); assay: inhibitors of human RAD54 branch migration, confirmation, biochemical, fluorescence, cherry-picked samples, dose series (AID 651657); assay type: functional
T7 sequence (Q92698 whole entry): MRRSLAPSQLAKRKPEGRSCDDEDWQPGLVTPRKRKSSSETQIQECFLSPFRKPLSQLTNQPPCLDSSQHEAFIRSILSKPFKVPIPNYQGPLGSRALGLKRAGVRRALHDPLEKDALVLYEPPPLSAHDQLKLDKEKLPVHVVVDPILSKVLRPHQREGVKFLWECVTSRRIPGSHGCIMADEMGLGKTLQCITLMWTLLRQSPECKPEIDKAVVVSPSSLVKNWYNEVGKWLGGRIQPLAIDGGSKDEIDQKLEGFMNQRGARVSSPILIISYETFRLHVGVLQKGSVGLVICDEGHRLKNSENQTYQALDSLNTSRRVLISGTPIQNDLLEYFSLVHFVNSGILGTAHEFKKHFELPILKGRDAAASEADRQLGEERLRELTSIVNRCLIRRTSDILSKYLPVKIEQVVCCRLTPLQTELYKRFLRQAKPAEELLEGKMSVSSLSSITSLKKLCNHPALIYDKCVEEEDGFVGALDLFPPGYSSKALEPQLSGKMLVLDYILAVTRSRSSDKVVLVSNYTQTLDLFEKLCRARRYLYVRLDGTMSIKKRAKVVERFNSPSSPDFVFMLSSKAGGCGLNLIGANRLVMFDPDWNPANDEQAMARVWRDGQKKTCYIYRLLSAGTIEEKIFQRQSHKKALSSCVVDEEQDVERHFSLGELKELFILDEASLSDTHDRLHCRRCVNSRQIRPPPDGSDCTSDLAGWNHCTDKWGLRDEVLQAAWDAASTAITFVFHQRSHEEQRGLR

[18] = biological target: ADP-ribosylation factor GTPase-activating protein 1 (Rattus norvegicus, UniProt Q62848); assay: Fluorescence polarization-based biochemical high throughput dose response screening assay to identify inhibitors of ADP-ribosylation factor GTPase activating protein 1 (ARFGAP1).; assay type: functional
Sequence of ADP-ribosylation factor GTPase-activating protein 1 (Q62848 whole entry, the tested form may be a part): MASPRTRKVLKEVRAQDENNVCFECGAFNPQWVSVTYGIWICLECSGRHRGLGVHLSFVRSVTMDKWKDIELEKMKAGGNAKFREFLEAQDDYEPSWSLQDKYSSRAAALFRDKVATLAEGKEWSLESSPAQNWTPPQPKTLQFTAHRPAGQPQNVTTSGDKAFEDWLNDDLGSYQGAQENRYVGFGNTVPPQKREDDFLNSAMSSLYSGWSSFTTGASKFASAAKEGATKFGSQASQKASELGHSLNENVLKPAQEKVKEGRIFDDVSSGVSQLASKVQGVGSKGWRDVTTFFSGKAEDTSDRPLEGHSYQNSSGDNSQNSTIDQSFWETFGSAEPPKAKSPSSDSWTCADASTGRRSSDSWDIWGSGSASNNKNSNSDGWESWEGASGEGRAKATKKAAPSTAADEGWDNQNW

[19] = inhibitors of clade B AD8 Env fusion, dose response, cell-based, cherry-pick (AID 652062); assay type: functional;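 also: luciferase signal from cell-cell fusion driven by HIV-1 clade B AD8 Env; potency is for inhibitors of fusion seen as a drop in luminescence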
[20] = CEM21 lymphoblast cell cytotoxicity, dose response, cytotoxicity control for viral fusion inhibitor project, CellTiter-Glo luminescence, cherry-picked (AID 652042); assay type: functional, cell-based;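 also: potency for signal decrease meaning cytotoxicity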

COC/C=C/C1=CC2=CC(=O)C(C)(OC(=O)C3CCCC3)C(=O)C2=CO1 (configuration not stated)
IC50 (Protein skinhead-1): > 100 µM (inactive) | IC50 (Genome polyprotein): 90.2 µM (active) | IC50 [1]: 11.4 µM (inactive) | EC50 [2]: > 300 µM (not active) | EC50 [3]: > 300 µM (not active)

CCOC(=O)[C@]12Cc3ccc(C)cc3[C@H]1N(C1CCCCC1)C(=O)c1ccccc12
IC50 (Beta Lactamase): 20 µM (inactive) | IC50 (Fatty acid synthase [4]): 6.79 µM (active) | IC50 (Fatty acid synthase [5]): 6.12 µM (active) | IC50 [6]: 2.19 µM (active)

COc1ccc(OC)c(S(=O)(=O)N2c3ccccc3CC2C)c1 (configuration not stated)
IC50 [7]: 3.48 µM (active) | IC50 [8]: 33.9 µM (active) | EC50 [9]: > 53 µM (inactive)

COc1ccc2ccccc2c1CNC(C)c1ccccc1 (configuration not stated)
AC50 (Vero): 31 µM (active)

COc1ccc2cc(-c3cc(C(=O)OCC(=O)NC4CCS(=O)(=O)C4)c4ccccc4n3)ccc2c1 (configuration not stated)
AC50 (HEK293): 1.09 µM (active) | AC50 [10]: 29.3 µM (active) | EC50 [11]: 7.41 µM (active) | EC50 [12]: 6.8 µM (active) | EC50 [13]: 10.1 µM (inconclusive)

Fc1ccc(NC(=S)NNc2ncc(C(F)(F)F)cc2Cl)c(F)c1
IC50 [14]: 15.6 µM (active) | EC50 (Beta-galactosidase): > 40 µM (inactive) | IC50 (Galanin receptor type 3): 1.79 µM (active)

N=C(N/N=C/c1ccnc2ccccc12)SC1CC(=O)N(c2ccc(Br)cc2)C1=O (configuration not stated)
IC50 [15]: 12.7 µM (inactive)

CC(C)(C)c1cc(C(=O)NNC(=O)Nc2cccc(Cl)c2)n(Cc2ccccc2)n1
IC50 [7]: 5.13 µM (active) | IC50 [8]: 2 µM (active) | EC50 [9]: > 53 µM (inactive)

O=C(Cn1nc(-c2ccc3c(c2)OCCO3)ccc1=O)Nc1ccc(-n2cnnn2)cc1
IC50 [15]: 38.5 µM (inactive)

CCOC(=O)c1cnc2c(C)cc(Cl)cc2c1NCCCN1CCOCC1
AC50 [16]: 60.9 µM (active) | AC50 [17]: 17.4 µM (active)

O=C(Nc1ccc(CN2CCOCC2)cc1)c1ccc(-c2cccc(Cl)c2)o1
IC50 [18]: 81.7 µM (inactive) | AC50 [19]: 32.2 µM (active) | AC50 [20]: 44.2 µM (active)

COc1cc(/C=C(\C#N)c2ccccn2)ccc1OCC(=O)Nc1c(Cl)cccc1Cl
IC50 [18]: 96.6 µM (inactive)
